Experiments:
[1] = test system: trained cyclists; assay: Onset of blood lactate accumulation (OBLA) test, incremental cycling exercise; assay type: in vivo
Method: Two tests were performed to determine whether quercetin lowers blood lactate or improves maximal lactate steady state: a VO2PEAK test and an onset of blood lactate accumulation [OBLA] test. These tests were performed in a laboratory maintained at 20-25° C. and 35-40% relative humidity with the participants exercising on a Velotron bicycle trainer (Velotron Pro, RacerMate Inc, Seattle, Wash.) calibrated according to manufacturer's recommendations. VO2PEAK was determined using an incremental multistage cycling protocol: following a 10-min warm-up at 100 W, participants cycled at 150 W for five minutes then power output was increased by 50 W every three minutes until 250 W after which power output was increased by 25 W every minute until volitional exhaustion. Oxygen consumption (VO2) and carbon dioxide production (VCO2) were computed from expiratory gases collected and analyzed with a MOXUS metabolic cart (AEI Technologies, Pittsburgh, Pa.). OBLA was determined on a second occasion, separated from the measurement of VO2PEAK by at least seven days. The participants exercised for 3.5 minute stages at 55, 60, 65, 70, 75, 80, 85, and 90% VO2PEAK, and 3-mL blood samples were collected during the final 30 sec of each stage for measuring blood lactate concentration, OBLA was determined using curve fitting techniques and expressed as a percentage of VO2PEAK. OBLA was determined before and after 28 days of quercetin supplementation (1000 mg/d) contained in a 2% carbohydrate beverage with electrolytes and vitamins C and B3.

[2] = test system: C2C12 cells; assay: Muscle cell assay: lactate concentration in C2C12 cells after electrical pulse stimulation; assay type: cell-based, Mouse
Method: Mouse C2C12 myoblasts are purchased from American Type Culture Collection (ATCC; Manassas, Va.) and grown to 90% confluence in high glucose Dubecco's Modified Eagle media (DMEM) with 10% fetal bovine serum (FBS). Myoblasts from the purchased lot are grown in T75 flasks and subcultured >5 times prior to plating in collagen coated six-well plates for experimentation. To induce myotube differentiation FBS containing media is replaced with 2% horse serum containing media or serum free media for 5-7 days. Myoblasts are grown and myotubes are maintained with or without antibiotics in a 37° C., 5% CO2 incubator. Electrical pulsing is applied to the myotubes using a C-Pace EP Cell Culture Stimulator (IonOptix; Milton, Mass.). […] Immediately prior to stimulation, day old media is removed and replaced with 5 ml of fresh differentiation media. For incubation experiments, differentiated myotubes are pre-treated with quercetin and/or other compounds. Approximately 18 hours prior and again immediately before electrical pulse stimulation, DMEM containing 2% horse serum or serum free media is replaced with the same media containing quercetin or other test compounds at varying concentrations. Samples from media from resting and contracted cells (with and without compound incubation) is analyzed enzymatically for lactate with a modified method of Lowry and Passonneau (A Flexible System of Enzymatic Analysis, pages 194-199, Academic Press, INC. 1972 hereby incorporated by reference in its entirety.) The effect of quercetin on lactate concentration of muscle cells subjected to electrical pulse stimulation as generally described in Example 1 and Example 2 was studied. […] Media was changed every 24 hours. After 48 hours, growth media was replaced with AIM 5 differentiation media which was also changed every 24 hours. […] Lactate concentrations were measured with the Enzychrom L-Lactate Kit as follows. […] The optical density (OD0) was read for time “zero” at 565 nm and OD20 after a […] incubation at room temperature.

SMILES: O=c1c(O)c(-c2ccc(O)c(O)c2)oc2cc(O)cc(O)c12 [quercetin]
- improvement of the % VO2 Peak where the cyclist achieved a blood lactate concentration of 4 mmol ([1]; after quercetin administration vs before, FIG. 1): about 3%
- % VO2 Peak to achieve a 4 mmol blood lactate concentration ([1]; after quercetin administration, about 71% before, FIG. 1): about 73%
- cycling power output required to elicit a 4 mmol blood lactate ([1]; endurance cyclists, after 28 days of quercetin administration (1000 mg/d), 244 W before): 250 W
- increase in cycling power output required to elicit a 4 mmol blood lactate ([1]; endurance cyclists, before vs after 28 days of quercetin administration (1000 mg/d), FIG. 1): 6 watts (W)
- day 5 lactate concentration post stimulus ([2]; plate C (primed days 3 and 4, quercetin days 3, 4, 5) vs plate A without quercetin, 60 minutes low intensity stimulation (10V/0.5 hz/24 ms), FIG. 5): lower day 5 lactate concentration post stimulus
- day 5 lactate concentration post stimulus ([2]; plate D (primed days 3 and 4, quercetin days 3, 4, 5) vs plate B without quercetin, 60 minutes high intensity stimulation (10V/4 hz/2 ms), FIG. 6): lower day 5 lactate concentration post stimulus
- day 5 lactate concentration post stimulus ([2]; plate E (no priming, quercetin day 5 only) vs plate F without quercetin, 60 minutes high intensity stimulation (10V/4 hz/2 ms), FIG. 7): lower day 5 lactate concentration post stimulus

— patent publication US10105344B2, “Methods of reducing blood lactate concentration” (Stokely-Van Camp, Inc., priority 2010, dated 2018)
